Blank lines part the entries; values can stand above or below the molecule they belong to.
How the values were obtained:
[1] = target: T1, human NLuc‐A3R (Homo sapiens, UniProt P0DMS8); assay: NanoBRET saturation binding in stable HEK293G cell line expressing NLuc‐A3R; conditions: non‐specific defined with 1 μM MRS‐1220; PSB603‐BY630 at concentrations up to 500 nM
T1 construct: expressed in transfected cells
T1 sequence (P0DMS8 1-318): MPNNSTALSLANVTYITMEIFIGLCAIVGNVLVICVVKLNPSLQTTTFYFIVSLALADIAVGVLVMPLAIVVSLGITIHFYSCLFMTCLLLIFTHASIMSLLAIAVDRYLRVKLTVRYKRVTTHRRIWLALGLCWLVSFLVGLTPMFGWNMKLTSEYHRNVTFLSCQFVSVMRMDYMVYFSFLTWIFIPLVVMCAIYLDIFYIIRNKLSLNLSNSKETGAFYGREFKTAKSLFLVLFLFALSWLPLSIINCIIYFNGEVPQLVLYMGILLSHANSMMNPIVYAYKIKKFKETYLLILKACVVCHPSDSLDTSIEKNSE
Protocol: (§1) Saturation and competition binding assays were performed as previously described.[36] Briefly, cells were seeded in 96‐well white clear‐bottomed Greiner plates pre‐treated with 10 μg/mL poly‐D‐lysine (Sigma‐Aldrich, Missouri USA) at a density of 30 000–35 000 cells per well in DMEM supplemented with 10% FBS. […] The NanoLuc substrate, furimazine (Promega Corporation, Wisconsin, USA), was then added to each well (1:400 dilution) and the plate was incubated for 10 min in the dark at 37°C. The resulting bioluminescence resonance energy transfer (BRET) was measured using a PHERAstar FS plate reader (BMG Labtech) at 37°C. For each well, filtered light emissions at 460 nm (80 nm bandpass) and >610 nm (longpass) for the BODIPY630/650 ligand were simultaneously measured. BRET ratios were calculated by dividing the 610 nm emission by the 460 nm emission. All conditions were performed in 2–6 replicates within each plate. For kinetic experiments, cells were preincubated for 10 min with 1:400 dilution of furimazine prior to addition of 200 nM PSB603‐BY630 and BRET ratios determined every 0.5 min. At 60 min, 10 μM MRS‐1706 was added and the ligand‐binding kinetics followed for a further 60 min.

[2] = target: T2, NLuc‐A2BR (Homo sapiens, UniProt P29275); assay: cAMP GloSensor luminescence assay in HEK293G cells overexpressing NLuc‐A2BR; assay type: cell-based; conditions: agonist alone, n=5
T2 construct: expressed in transfected cells
T2 sequence (P29275 1-332): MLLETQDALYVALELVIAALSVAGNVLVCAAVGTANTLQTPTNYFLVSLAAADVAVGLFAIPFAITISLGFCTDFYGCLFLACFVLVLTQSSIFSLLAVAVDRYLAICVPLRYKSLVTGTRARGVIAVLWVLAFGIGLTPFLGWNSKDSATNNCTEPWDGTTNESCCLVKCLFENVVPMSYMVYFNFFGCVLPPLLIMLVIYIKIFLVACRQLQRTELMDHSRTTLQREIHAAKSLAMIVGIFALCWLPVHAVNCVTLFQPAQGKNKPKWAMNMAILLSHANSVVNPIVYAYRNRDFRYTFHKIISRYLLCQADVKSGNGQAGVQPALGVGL
Protocol: (§2) The cAMP GloSensor™ luminescence assay was performed according to the manufacturer's instructions (Promega Corporation, Madison, WI, USA). Briefly, after 24 h incubation at 37°C and 5% CO2 after cell plating (40 000 cells/well in 100 μL), medium was aspirated from each well of the 96‐well plate. Cells were incubated in 50 μL HEPES buffered saline solution (HBSS; 2 mM sodium pyruvate, 145 mM NaCl, 10 mM D‐glucose, 5 mM KCl, 1 mM MgSO4.7H2O, 10 mM HEPES, 1.3 mM CaCl2, 1.5 mM NaHCO3 in double‐distilled water, pH 7.45) containing 3% GloSensor™ cAMP reagent at 37°C for 1.5 h. For agonist studies, an initial baseline luminescence read was made at time zero, the plate was then removed from the plate‐reader and a further 50 μL HBSS containing agonist (2× final concentration) or HBSS (vehicle control) added. Luminescence was measured on an open channel (gain of 3600) immediately after these additions, and then continuously over 60 min, reading each well once every minute, by a PHERAstar FSX microplate reader (BMG Labtech, Offenburg, Germany) at 37°C. Increases in luminescence are indicative of intracellular cAMP accumulation, thus the temporal changes in relative cytosolic cAMP concentration were measured upon agonist or vehicle addition. Antagonist action was determined following 30 min pre‐incubation of HBSS in the presence of 20 and 200 nM PSB603‐BY630 and read as above. All conditions were performed in triplicates within each plate.

[3] = target: T3, endogenous A2BR (Homo sapiens, UniProt P29275); assay: cAMP GloSensor luminescence assay in HEK293G cells endogenously expressing A2BR; assay type: cell-based; conditions: agonist alone, n=5
T3 construct: HEK293G cells that express the cAMP biosensor Glosensor also endogenously express both A2BR and A2AR; host or cells: HEK293G
T3 sequence (P29275 1-332): T2 sequence (P29275 1-332)
Protocol: as §2

[4] = target: T2, NLuc‐A2BR; assay: NanoBRET competition binding against 50 nM PSB603‐BY630 in HEK293G cells expressing NLuc‐A2BR; conditions: for Ki: read-out: Appararent Log K i (converted)
Protocol: as §1, with “min.” for “min. At 60 min, 10 μM MRS‐1706 was added and the ligand‐binding kinetics followed for a further 60 min.”
The IC 50 values were then used to calculate the K i values using the Cheng‐Prussoff equation: Ki=IC50/1+L/KD where [L] is the concentration of PSB603‐BY630 in nM, and K D is the dissociation constant of that fluorescent ligand in nM.

[5] = target: T2, NLuc‐A2BR; assay: NanoBRET imaging of PSB603‐BY630 binding to HEK293G cells expressing NLuc‐A2BR; conditions: 100 nM PSB603‐BY630, co‐incubation with 10 μM MRS‐1706, 30 min
Protocol: Cells were seeded onto 35 mm Cellview 4‐quadrant culture dishes (Greiner Bio‐one), which have a 10 mm glass coverslip bottom, in DMEM supplemented with 10% FBS at a density of 100 000 cells per quadrant 2 days prior to experiment in total volume of 500 μL. On the day of the experiment medium was replaced with HBSS in the presence or absence of PSB603‐BY630 (100 nM) and/or MRS1706 (10 μM) and incubated for 30 min at 37°C before imaging. Bioluminescence and NanoBRET imaging were performed on an Olympus LuminoView 200 microscope with a 60× NA1.42 oil immersion objective with a 0.5× tube lens, following addition of furimazine (1:800 dilution) (Promega). Images were captured by a C9100‐23B IMAGE EMX2 camera (Hamamatsu, Japan) with gain set at 200 for all channels. Filtered bioluminescence was captured using a 438/24 bandpass filter, BRET in the presence of PSB603‐BY630 was captured using a 650/50 nm bandpass filter. For the NLuc‐A2BR stable cell line exposure times were set at 10 s for filtered bioluminescence and 75 sec for BRET. Raw intensity values were determined for three regions of interest per experiment per condition and the BRET ratio calculated by dividing the raw intensity recorded from the BRET capture by the filtered bioluminescence capture. Corrected BRET ratios were determined by subtracting the BRET ratio determined from a control quadrant (HBSS alone). […]

[6] = target: human A2BR; design: method as in PMID 23286920; conditions: membranes from CHO cells expressing the human A2BR ref 13; cited from earlier work

specific binding to NLuc‐A3R [1]: high affinity specific binding
Compound: COc1ccc(-n2nc3c(NC(=O)CCC(=O)NCCOCCOCCNC(=O)CCCCCNC(=O)COc4ccc(/C=C/C5=[N+]6C(=Cc7ccc(-c8cccs8)n7[B-]6(F)F)C=C5)cc4)nc4ccccc4n3c2=O)cc1 [AV039]

Compound: N#Cc1c(N)nc(SCC(N)=O)c(C#N)c1-c1ccc(OCC2CC2)cc1 [BY 60–6583, 2‐[[6‐Amino‐3,5‐dicyano‐4‐[4‐(cyclopropylmethoxy)phenyl]‐2‐pyridinyl]thio]‐acetamide]
Emax ([2]; HEK293G, read-out: HEK293G A2BAR EMAX (% of response to 0.3 μM BAY‐60‐6583)): 100 ± 1.29%
EC50 ([2]; read-out: HEK293G A2BAR Log EC50 (converted)): 0.0186 µM
Emax ([3]; HEK293G, read-out: Endogenous HEK293G EMAX (% of response to 3 μM BAY‐60‐6583)): 104 ± 3.09%
EC50 ([3]; read-out: Endogenous HEK293G Log EC50 (converted)): 0.129 µM

Compound: O=C(Cc1ccccc1)Nc1nc2ccc(Cl)cc2c2nc(-c3ccco3)nn12 [MRS1220, N‐[9‐Chloro‐2‐(2‐furanyl)[1,2,4]‐triazolo[1,5‐c]quinazolin‐5‐yl]benzene acetamide]
Appararent Log K i ([4]; calculated from IC50 (Cheng‐Prussoff) assuming competition with 50 nM PSB603‐BY630 for the same site, mean ± S.E.M., n=5): −6.40 ± 0.19
Log IC50 ([4]; inhibition of the binding of 50 nM PSB603‐BY630, mean ± S.E.M., n=5): −5.82 ± 0.19

Compound: CCCn1c(=O)c2[nH]c(-c3ccc(OCC(=O)Nc4ccc(C(C)=O)cc4)cc3)nc2n(CCC)c1=O [MRS1706, N‐(4‐Acetylphenyl)‐2‐[4‐(2,3,6,7‐tetrahydro‐2,6‐dioxo‐1,3‐dipropyl‐1H‐purin‐8‐yl)phenoxy]acetamide]
effect on PSB603‐BY630 binding to cell surface receptors (BRET imaging) [5]: completely prevented
IC50 [4]: 0.0363 µM
Ki [4]: 0.00977 µM

IC50 [4]: 9.55 µM
Ki [4]: 2.57 µM
Compound: COc1ccc(CCCn2ncc3c2nc(N)n2nc(-c4ccco4)nc32)cc1 [SCH442416, 2‐(2‐Furanyl)‐7‐[3‐(4‐methoxyphenyl)propyl]‐7H‐pyrazolo[4,3‐e][1,2,4]triazolo[1,5‐c]pyrimidin‐5‐amine]

IC50 [4]: 6.46 µM
Ki [4]: 1.74 µM
Compound: O[C@H]1CC[C@H](Nc2nc(-c3ccccc3)nc3[nH]ccc23)CC1 [SLV320, trans‐4‐[(2‐Phenyl‐7H‐pyrrolo[2,3‐d]pyrimidin‐4‐yl)amino]cyclohexanol]

Compound: CCCn1c(=O)[nH]c2nc(-c3ccc(S(=O)(=O)N4CCN(c5ccc(Cl)cc5)CC4)cc3)[nH]c2c1=O [[^3H]‐PSB603]
Kd [6]: 0.0036 µM

Reference: article PMC11191602, “A novel and selective fluorescent ligand for the study of adenosine A2B receptors” (Pharmacology Research & Perspectives, 2024)
